This note sets out measurements from patent US20190100534A1, “Cephem Compounds with Latent Reactive Groups” (Gladius Pharmaceuticals, Inc., priority 2017, published 2019).

Common to all, as to assay: MIC determination, isogenic E. coli strains
Type in all cases: cell-based

Assay [1] relates to Isogenic E. coli J58 strain carrying NDM-1. To be noted: for MIC: Escherichia coli, 18 h, read-out: Mimimum Inhibitory Concentrations, NDM-1; for Mimimum Inhibitory Concentrations, NDM-1: isogenic E. coli strain, CAMH broth, 20 μM Apo-Transferrin, 37° C., 18 hours. The protocol: (§1) Sterile technique was used throughout these experiments. Suspensions of organisms were removed from storage (−80° C.) and partially thawed. Partially thawed organisms (1 μL) were inoculated into 3 mL sterile LB Broth in a sterile culture tube and capped, then cultured at 37° C. with shaking for 4-5 hours until the optical density at 600 nm (OD600) was greater than 0.1 on a single beam spectrophotometer.
(§2) The concentration of organisms was adjusted to 0.08-0.1 OD600 (0.5 McFarland units) by dilution with sterile cation-adjusted Meuller-Hinton (CAMH) broth. The suspensions were used within 30 minutes of preparation.
(§3) A stock solution was made of each test compound by measuring 6.4 mg of the compound on an analytical balance and dissolving it in DMSO (1 mL) to get a transparent solution. The solutions were stored at −20° C. and thawed prior to use.
(§4) Sterile CAMH broth (200 μL) containing 20 μM Apo-Transferrin was pipetted into the first row of 8 columns of a sterile, round-bottomed, transparent, 96-well microplate using an 8-channel pipette equipped with sterile tips. One hundred μL was pipetted into the wells of the remaining 11 rows.
(§5) With an 8-channel pipette equipped with sterile tips, 100 μL of the first row solution was transferred to the second row and mixed. The process was repeated for the second to third rows and continued through row 11. One hundred μL from row 11 was removed and discarded so that all 12 rows contained 100 μL. Row 12 contained no compound and rows 1-11 contained 64, 32, 16, 8, 4, 2, 1, 0.5, 0.25, 0.125, […] of a given compound.
(§6) Inoculant suspensions (0.5 μL) were added to the 12 wells of each column. The plates were then covered and incubated at 37° C. overnight for 18 hours.
(§7) For each organism the MIC was determined by identifying the transparent well with the lowest test compound concentration.
NDM-1 (Group 3a carbapenemase, broad spectrum divalent Zn^++ metallo-Beta-Lactamase);
(§8) The gene sequence for each beta-lactamase enzyme was synthesized and inserted into the pBC-SK(+) plasmid by GenScript, a commercial service. E. coli J53 was transformed with each plasmid via electroporation and resistant transformants were selected on agar plates containing 50 micrograms/mL ampicillin. The selected transformants were stored at −80 degrees C. in 20% glycerol.

Assay [2] has as its system Isogenic E. coli J58 strain carrying IMP-1. As to conditions: for MIC: Escherichia coli, 18 h, read-out: Mimimum Inhibitory Concentrations, IMP-1; for Mimimum Inhibitory Concentrations, IMP-1: isogenic E. coli strain, CAMH broth, 20 μM Apo-Transferrin, 37° C., 18 hours. The protocol:
as §1, §2, §3, §4, §5, §6, §7
IMP-1 (Group 3a carbapenemase, metallo-beta-Lactamase).
as §8

The subject of assay [3] is Isogenic E. coli J58 strain carrying VIM-2. As to conditions: for MIC: Escherichia coli, 18 h, read-out: Mimimum Inhibitory Concentrations, VIM-2; for Mimimum Inhibitory Concentrations, VIM-2: isogenic E. coli strain, CAMH broth, 20 μM Apo-Transferrin, 37° C., 18 hours. The protocol: as §1, §2, §3, §4, §5, §6, §7
VIM-2 (Group 3a carbapenemase, metallo-beta-lactamase); and
as §8

The subject of assay [4] is Isogenic E. coli J58 strain carrying SHV-1. To be noted: for MIC: Escherichia coli, 18 h, read-out: Mimimum Inhibitory Concentrations, SHV-1; for Mimimum Inhibitory Concentrations, SHV-1: isogenic E. coli strain, CAMH broth, 20 μM Apo-Transferrin, 37° C., 18 hours. The protocol: as §1, §2, §3, §4, §5, §6, §7
SHV-1 (Class A, Group 2b beta-lactamase, hydrolyzes penicillins and early cephalosporins);
as §8

The test system of assay [5] is Isogenic E. coli J58 strain carrying CTX-M-15. To be noted: for MIC: Escherichia coli, 18 h, read-out: Mimimum Inhibitory Concentrations, CTX-M-15; for Mimimum Inhibitory Concentrations, CTX-M-15: isogenic E. coli strain, CAMH broth, 20 μM Apo-Transferrin, 37° C., 18 hours. As to the method: as §1, §2, §3, §4, §5, §6, §7
(§9) CTX-M-14 and CTX-M-15 (Class A, Group 2be beta-lactamases, hydrolyzes extended spectrum cephalosporins and monobactams);
as §8

The test system of assay [6] is Isogenic E. coli J58 strain carrying CTX-M-14. As to conditions: for MIC: Escherichia coli, 18 h, read-out: Mimimum Inhibitory Concentrations, CTX-M-14; for Mimimum Inhibitory Concentrations, CTX-M-14: isogenic E. coli strain, CAMH broth, 20 μM Apo-Transferrin, 37° C., 18 hours. As to the method:
as §1, §2, §3, §4, §5, §6, §7, §9, §8

In assay [7] the test system is Isogenic E. coli J58 strain carrying TEM-26. As to conditions: for MIC: Escherichia coli, 18 h, read-out: Mimimum Inhibitory Concentrations, TEM-26; for Mimimum Inhibitory Concentrations, TEM-26: isogenic E. coli strain, CAMH broth, 20 μM Apo-Transferrin, 37° C., 18 hours. The protocol: as §1, §2, §3, §4, §5, §6, §7
TEM-26 (Group 2be beta-lactamase, hydrolyzes extended spectrum cephalosporins and monobactams), [25];
as §8

Assay [8] has as its system Isogenic E. coli J58 strain carrying KPC-3. To be noted: for MIC: Escherichia coli, 18 h, read-out: Mimimum Inhibitory Concentrations, KPC-3; for Mimimum Inhibitory Concentrations, KPC-3: isogenic E. coli strain, CAMH broth, 20 μM Apo-Transferrin, 37° C., 18 hours. The protocol:
as §1, §2, §3, §4, §5, §6, §7
(§10) KPC-2 and KPC-3 (Class A, Group 2f, carbapenemases);
as §8

Assay [9] deals with Isogenic E. coli J58 strain carrying KPC-2. To be noted: for MIC: Escherichia coli, 18 h, read-out: Mimimum Inhibitory Concentrations, KPC-2; for Mimimum Inhibitory Concentrations, KPC-2: isogenic E. coli strain, CAMH broth, 20 μM Apo-Transferrin, 37° C., 18 hours. The protocol: as §1, §2, §3, §4, §5, §6, §7, §10, §8
Assay [10] concerns E. coli J53 Alone. To be noted: for MIC: Escherichia coli, J53ALONE, 18 h, read-out: Mimimum Inhibitory Concentrations, J53 Alone; for Mimimum Inhibitory Concentrations, J53 Alone: CAMH broth, 20 μM Apo-Transferrin, 37° C., 18 hours. As to the method:
as §1, §2, §3, §4, §5, §6, §7, §8

Assay [11] deals with Isogenic E. coli J58 strain carrying DHA-1. As to conditions: for MIC: Escherichia coli, 18 h, read-out: Mimimum Inhibitory Concentrations, DHA-1; for Mimimum Inhibitory Concentrations, DHA-1: isogenic E. coli strain, CAMH broth, 20 μM Apo-Transferrin, 37° C., 18 hours. The protocol: as §1, §2, §3, §4, §5, §6, §7, §8

A value given as a limit tells only on which side of the number the result lay.

On to `CC(C)(O/N=C(\C(=O)N[C@@H]1C(=O)N2C(C(=O)O)=C(C=Cc3ccc(C[N+]4(C)CCc5cc(O)c(O)cc5C4)cc3[N+](=O)[O-])CS[C@H]12)c1csc(N)n1)C(=O)O` (mixture of isomers) [Compound 445, 2-(4-((E/Z)-2-((6R,7R)-7-((Z)-2-(2-aminothiazol-4-yl)-2-(((2-carboxypropan-2-yl)oxy)imino)acetamido)-2-carboxy-8-oxo-5-thia-1-azabicyclo[4.2.0]oct-2-en-3-yl)vinyl)-3-nitrobenzyl)-6,7-dihydroxy-2-methyl-1,2,3,4-tetrahydroisoquinolin-2-ium], for which the MIC is more than 64 µg/mL in [1]; 1 µg/mL in assay [2]; 0.25 µg/mL in assay [3]; 1 µg/mL in assay [4]; 4 µg/mL in assay [5]; 4 µg/mL in assay [6]. Moreover, the MIC is 1 µg/mL in assay [7]; 16 µg/mL in [8]; 64 µg/mL in assay [9]; 1 µg/mL in assay [10]; 1 µg/mL in assay [11]. The “Mimimum Inhibitory Concentrations, J53 Alone” value in assay [10] (Table 4-2) worked out at 1 microgram/mL.
Turning to `CO/N=C(\C(=O)N[C@@H]1C(=O)N2C(C(=O)O)=C(C=Cc3ccc(C[n+]4ccc(OC)c(OC)c4)cc3[N+](=O)[O-])CS[C@H]12)c1csc(N)n1` (mixture of isomers) [Compound 392, 1-(4-((E/Z)-2-((6R,7R)-7-((Z)-2-(2-aminothiazol-4-yl)-2-(methoxyimino)acetamido)-2-carboxy-8-oxo-5-thia-1-azabicyclo[4.2.0]oct-2-en-3-yl)vinyl)-3-nitrobenzyl)-3,4-dimethoxypyridin-1-ium], the “Mimimum Inhibitory Concentrations, NDM-1” value in assay [1] is given as more than 64 microgram/mL. The “Mimimum Inhibitory Concentrations, IMP-1” value in assay [2] is more than 64 microgram/mL. Also, in [3], the “Mimimum Inhibitory Concentrations, VIM-2” value is more than 64 microgram/mL. The “Mimimum Inhibitory Concentrations, SHV-1” value in assay [4] is given as more than 64 microgram/mL. Further, the “Mimimum Inhibitory Concentrations, CTX-M-15” value in assay [5] was more than 64 microgram/mL. In addition, in assay [6], the “Mimimum Inhibitory Concentrations, CTX-M-14” value is more than 64 microgram/mL. The “Mimimum Inhibitory Concentrations, TEM-26” value in [7] is recorded as 32 microgram/mL. The “Mimimum Inhibitory Concentrations, KPC-3” value in assay [8] is recorded as more than 64 microgram/mL. Also, the “Mimimum Inhibitory Concentrations, KPC-2” value in assay [9] is on record as more than 64 microgram/mL. The “Mimimum Inhibitory Concentrations, J53 Alone” value in assay [10] (Table 4-1) and in assay [10] (Table 4-2) was 64 microgram/mL in each case. In addition, the “Mimimum Inhibitory Concentrations, DHA-1” value in assay [11] is given as more than 64 microgram/mL.
As to `CC(C)(O/N=C(\C(=O)N[C@@H]1C(=O)N2C(C(=O)O)=C(C=Cc3ccc(C[n+]4ccc(O)c(O)c4)cc3)CS[C@H]12)c1csc(N)n1)C(=O)O` (mixture of isomers) [Compound 443, 1-(4-((E/Z)-2-((6R,7R)-7-((Z)-2-(2-aminothiazol-4-yl)-2-(((2-carboxypropan-2-yl)oxy)imino)acetamido)-2-carboxy-8-oxo-5-thia-1-azabicyclo[4.2.0]oct-2-en-3-yl)vinyl)benzyl)-3,4-dihydroxypyridin-1-ium], in assay [1], the “Mimimum Inhibitory Concentrations, NDM-1” value is recorded as more than 64 microgram/mL. For the same compound, the “Mimimum Inhibitory Concentrations, IMP-1” value in assay [2] is reported as 4 microgram/mL. In [3], the “Mimimum Inhibitory Concentrations, VIM-2” value came to 0.25 microgram/mL. The “Mimimum Inhibitory Concentrations, SHV-1” value in [4] turned out to be 1 microgram/mL. Besides, the “Mimimum Inhibitory Concentrations, CTX-M-15” value in assay [5] is 1 microgram/mL. Moreover, in assay [6], the “Mimimum Inhibitory Concentrations, CTX-M-14” value stood at 0.25 microgram/mL. Also, the “Mimimum Inhibitory Concentrations, TEM-26” value in assay [7] is on record as 2 microgram/mL. Moreover, in assay [8], the “Mimimum Inhibitory Concentrations, KPC-3” value was 4 microgram/mL. In assay [9], the “Mimimum Inhibitory Concentrations, KPC-2” value is 8 microgram/mL. The “Mimimum Inhibitory Concentrations, J53 Alone” value in assay [10] (Table 4-1) and in assay [10] (Table 4-2) was 0.13 microgram/mL throughout. In addition, the “Mimimum Inhibitory Concentrations, DHA-1” value in assay [11] is recorded as 1 microgram/mL.
As for `CC(C)(O/N=C(\C(=O)N[C@@H]1C(=O)N2C(C(=O)O)=C(C=Cc3ccc(C[N+](C)(C)CCc4ccc(O)c(O)c4)cc3)CS[C@H]12)c1csc(N)n1)C(=O)O` (mixture of isomers) [Compound 440, N-(4-((E/Z)-2-((6R,7R)-7-((Z)-2-(2-aminothiazol-4-yl)-2-(((2-carboxypropan-2-yl)oxy)imino)acetamido)-2-carboxy-8-oxo-5-thia-1-azabicyclo[4.2.0]oct-2-en-3-yl)vinyl)benzyl)-2-(3,4-dihydroxyphenyl)-N,N-dimethylethan-1-aminium], the MIC in assay [1] is more than 64 µg/mL; in assay [2], 0.13 µg/mL; in assay [3] it was 0.25 µg/mL; in assay [4] it was 1 µg/mL; in assay [5], 0.25 µg/mL; in assay [6], 2 µg/mL. Further, the MIC in assay [7] was 1 µg/mL; in assay [8], 4 µg/mL; in [9], 16 µg/mL; in [10], 0.25 µg/mL; in assay [11] it was 0.25 µg/mL. The “MICs for an E. coli strain carrying the gene for carbapenemase IMP-1, in words” value in [2] (review of Tables 4-1 and 4-2) was “low microgram/mL MICs”. For the same compound, in assay [10] (Table 4-2), the “Mimimum Inhibitory Concentrations, J53 Alone” value stood at 0.25 microgram/mL.
